According to US9315489B2, “Compounds and compositions for inhibiting the activity of ABL1, ABL2 and BCR-ABL1” (Novartis AG, priority 2012, dated 2016):
pIC50: −log10 of the molar value. Where two headings read alike, the source gives them in different places.

Columns and labels:
[1] = test system: Ba/F3-BCR-ABL1-T315I cells; assay: Ba/F3-BCR-ABL1-T315I cellular proliferation assay; assay type: cell-based, murine; conditions: Mus musculus, read-out: Ba/F3-BCR-ABL1-T315I IC50
From the text: The murine bone marrow-derived cell line Ba/F3 was used to generate the appropriate cell line models. Ba/F3 cells were obtained from the German Collection of Microorganisms and Cell Cultures (DSMZ, Braunschweig and DSMZ No. ACC 300). […] These cells are referred to as Ba/F3-WT.
To generate Ba/F3 cells that depend on BCR-ABL1 expression for growth and survival, Ba/F3 cells were engineered to express BCR-ABL1 using retroviral transduction with a MSCV based retroviral vector containing a p210 BCR-ABL1expression cassette. When grown in the absence of IL-3, the proliferation of the cells is dependent on the expression of BCR-ABL1. (Daley, G. Q. and Baltimore, D. Transformation of an interleukin 3-dependent hematopoietic cell line by the chronic myeloid leukemia-specific p210 BCR-ABL1 protein. PNAS 1988; 85:9312-9316). These cells are referred to as Ba/F3-BCR-ABL1-WT. A similar approach was used to generate Ba/F3 cells that depend on a BCR-ABL1 variant in which threonine 315 is replaced with isoleucine. These cells are referred to as Ba/F3-BCR-ABL1-T3151.
Ba/F3-WT cells were maintained in RPMI1640 media with L-glutamine, HEPES (Lonza), 10% FBS (Gibco) and 5 ng/ml IL-3 (Calbiochem). Ba/F3-BCR-ABL1-WT cells and Ba/F3-BCR-ABL1-T3151 cells were maintained in RPMI1640 media with L-glutamine, HEPES (Lonza) and 10% FBS (Gibco).
For each cell line, the cell density was adjusted to 50 000 cells/mL and 50 μL (2500 cells) added per well of a 384-well assay plate.
Test compounds were resuspended in DMSO at a concentration of 10 mM. A serial three-fold dilution of each compound with DMSO was performed in 384-well plates using the Janus Liquid Dispenser (PerkinElmer). Compound was delivered to the assay plates containing 2500 cells in a 50 μL volume via Acoustic delivery from an ATS-100 (EDC). For Ba/F3-BCR-ABL1-WT cell assays, […] of each compound dilution was transferred to the assay plate for final assay concentrations of 0.4 μM, 0.13 μM, 0.044 μM, 0.015 μM, 0.005 μM, 0.001 μM, 0.00033 μM, 0.00011 μM, 0.000037 μM, 0.000012 μM. For Ba/F3-WT and Ba/F3-BCR-ABL1-T315I cell assays, […] of each compound dilution was transferred to the assay plate for final assay concentrations of 10 μM, 3.33 μM, 1.11 μM, 0.37 μM, 0.12 μM, 0.041 μM, 0.014 μM, 0.0046 μM, 0.0015 μM, 0.00051 μM.
Cells were incubated at 37° C. in a humidified environment with 5% carbon dioxide for 48 hours. Britelite plus solution (Perkin Elmer) was prepared according to the manufacturer's instructions and 25 μL added to each well of the assay plate. Plates were incubated for 3-5 minutes and the luminescence detected on an EnVision Multimode plate reader (Perkin Elmer). The degree of luminescence correlates with the number of cells in each well. The effect of each inhibitor concentration can therefore be calculated and IC50 values generated.

ABL1 (64-515) [2] = target: T1, ABL1 (64-515) (Homo sapiens (Human), UniProt P00519); assay: Radio ABL1 (64-515) assay (radiometric filter-binding); assay type: biochemical
Ba/F3-BCR-ABL1-WT cells = assay: Ba/F3-BCR-ABL1-WT cellular proliferation assay; assay type: cell-based, murine; conditions: Mus musculus, read-out: Ba/F3-BCR-ABL1-WT IC50
Protocol: To generate Ba/F3 cells that depend on BCR-ABL1 expression for growth and survival, Ba/F3 cells were engineered to express BCR-ABL1 using retroviral transduction with a MSCV based retroviral vector containing a p210 BCR-ABL1expression cassette. […] These cells are referred to as Ba/F3-BCR-ABL1-WT.
Cells were incubated at 37° C. in a humidified environment with 5% carbon dioxide for 48 hours. Britelite plus solution (Perkin Elmer) was prepared according to the manufacturer's instructions and 25 μL added to each well of the assay plate. […] The degree of luminescence correlates with the number of cells in each well. The effect of each inhibitor concentration can therefore be calculated and IC50 values generated.

ABL1 (64-515) [3] = target: T1, ABL1 (64-515); assay: Caliper ABL1 (64-515) assay (microfluidic mobility shift); assay type: biochemical
Protocol: All assays were performed in 384-well microtiter plates. Each assay plate contained 8-point serial dilutions for 40 test compounds, as well as four 8-point serial dilutions of staurosporine as a reference compound, plus 16 high and 16 low controls. Liquid handling and incubation steps were done on a Thermo CatX workstation equipped with Innovadyne Nanodrop Express. Between pipetting steps, tips were cleaned in wash cycles using wash buffer.
The assay plates were prepared by addition of 50 nL per well of compound solution in 90% DMSO. […] Plates with terminated kinase reactions were transferred to the Caliper LC3000 workstations for reading. Phosphorylated and unphosphorylated peptides were separated using the Caliper microfluidic mobility shift technology. Briefly, samples from terminated kinase reactions were applied to the chip. Analytes are transported through the chip by constant buffer flow and the migration of the substrate peptide is monitored by the fluorescence signal of its label. Phosphorylated peptide (product) and unphosphorylated peptide (substrate) are separated in an electric field by their charge/mass ratio. Kinase activities were calculated from the amounts of formed phospho-peptide. IC50 values were determined from percent inhibition values at different compound concentrations by non-linear regression analysis.
Test compounds were dissolved in DMSO (10 mM) and transferred into 1.4 mL flat bottom or V-shaped Matrix tubes carrying a unique 2D matrix. The stock solutions were stored at +2° C. if not used immediately. For the test procedure the vials were defrosted and identified by a scanner whereby a working sheet was generated that guided the subsequent working steps.
Compound dilutions were made in 96-well plates. This format enabled the assay of maximally 40 individual test compounds at 8 concentrations (single points) including 4 reference compounds. The dilution protocol included the production of “pre-dilution plates”, “master plates” and “assay plates”.
Polypropylene 96-well plates were used as pre-dilution plates. […] All dilution steps were done on a HamiltonSTAR robot.
These plates were used directly for the assay which was performed in a total volume of 9.05 μL.

[4] = Compound concentration in mouse brain and plasma; assay type: in vivo; conditions: 5 minutes after a single intravenous injection of 1 mg/kg in mice; for Kp at 5 min / concentration at 5 min: mouse; for Kp at 5 min: brain/plasma, read-out: Mean Ratio (brain/plasma); for concentration at 5 min: plasma, read-out: Mean blood (drug concentration in plasma)
Protocol: Approximately two parts volume of MeOH/water (2/8 v/v) were added to the preweighted brain samples (˜250 mg) and subsequently homogenized using Covaris™ instrument. A 50 μL aliquot was subjected to protein precipitation and analysis as described below.
Fifty μL aliquots of blood or brain homogenate from animals treated with c-ABL inhibitors were first spiked with 5 μL of the internal standard (N-(4-methyl-3-((4-(6-methylpyridin-3-yl)pyrimidin-2-yl)amino)phenyl)-4-((4-methylpiperazin-1-yl)methyl)benzamide for positive ion mode 5-chloro-N-(4-(N-(cyclohexylcarbamoyl)sulfamoyl)-phenethyl)-2-methoxybenzamide for negative ion mode, respectively), subsequently deproteinated by adding MeCN (200 μL), centrifuged, the supernatant evaporated to dryness, and re-dissolved in 100 μL of a MeOH/water (1/1 v/v). Five μL were subjected to HPLC-MS/MS analysis. Chromatographic separation from interfering endogenous and exogenous contaminants was achieved on an Phenomenex™ Polar RP reversed-phase HPLC column (particle size: 2.5 μm; column dimensions: 2×50 mm) using a linear gradient of 100% water containing 1% formic acid (A), and MeOH supplemented with 1% formic acid (B), which was run over 6.0 min from 5% to 90% B, then kept at 100% B for 1.0 min, and a subsequent 1.5 min postrun with re-equilibration of the column. The column was kept at 50° C. The flow of 350 μL/min from the HPLC system (Flux Rheos Allegro LC pump and CTC Pal autosampler) was directly introduced into the ion source of an Finnigan™ Quantum Ultra MS-detector (triple stage quadrupole mass analyzer) and subjected to heated electrospray ionization (HESI).
c-ABL inhibitors were specifically detected using multiple reaction monitoring from their quasi-molecular parent ion ([M+H]^+ or [M−H]^−) to specific daughter ions as given in the table below. Quantification of blood and brain levels of c-ABL inhibitors compounds were based on a 6-level calibration curve made in triplicate.

T1 sequence (P00519 64-515): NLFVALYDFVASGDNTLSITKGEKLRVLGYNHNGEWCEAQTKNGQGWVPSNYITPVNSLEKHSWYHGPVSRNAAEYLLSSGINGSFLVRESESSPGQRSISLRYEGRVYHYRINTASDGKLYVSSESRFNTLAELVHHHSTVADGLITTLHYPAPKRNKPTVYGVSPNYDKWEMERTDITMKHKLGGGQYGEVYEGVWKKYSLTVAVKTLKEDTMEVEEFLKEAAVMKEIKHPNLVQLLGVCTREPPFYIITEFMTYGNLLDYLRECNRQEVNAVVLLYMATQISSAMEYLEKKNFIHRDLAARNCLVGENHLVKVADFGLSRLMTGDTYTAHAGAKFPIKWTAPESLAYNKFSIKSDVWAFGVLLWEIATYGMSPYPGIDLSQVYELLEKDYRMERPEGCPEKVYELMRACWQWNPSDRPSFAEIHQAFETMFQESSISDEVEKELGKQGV

| SMILES | pIC50 ([1]; 48 hours) | pIC50 (ABL1 (64-515) [2]) | pIC50 (Ba/F3-BCR-ABL1-WT cells; 48 hours) | pIC50 (ABL1 (64-515) [3]) | also measured |
| --- | --- | --- | --- | --- | --- |
| O=C(Nc1ccc(OC(F)(F)F)cc1)c1ccc(OCCN2CCOCC2)c(-c2cncnc2)c1 [Example 37, 4-(2-Morpholinoethoxy)-3-(pyrimidin-5-yl)-N-(4-(trifluoromethoxy)phenyl)benzamide] | 6.28 | 8.44 | – | – | – |
| O=C(Nc1ccc(OC(F)(F)F)cc1)c1cncc(-c2cncc(F)c2)c1 [Example 75, 5′-Fluoro-N-(4-(trifluoromethoxy)phenyl)-[3,3′-bipyridine]-5-carboxamide] | 6.18 | – | 7.42 | 7.59 | – |
| CC(C)(C#N)c1ncc(C(=O)Nc2ccc(OC(F)(F)F)cc2)cc1-c1cncnc1 [Example 47, 6-(2-Cyanopropan-2-yl)-5-(pyrimidin-5-yl)-N-(4-(trifluoromethoxy)phenyl)nicotinamide] | 6.13 | – | – | – | – |
| O=C(Nc1ccc(OC(F)(F)F)cc1)c1cnc(C2=CCOCC2)c(-c2cncnc2)c1 [Example 44, 6-(3,6-Dihydro-2h-pyran-4-yl)-5-(pyrimidin-5-yl)-N-(4-(trifluoromethoxy)phenyl)nicotinamide] | 6.67 | 8.22 | – | – | – |
| Nc1ncc(-c2cncc(C(=O)Nc3ccc(OC(F)(F)F)cc3)c2)cn1 [Example 61, 5-(2-Aminopyrimidin-5-yl)-N-(4-(trifluoromethoxy)phenyl)nicotinamide] | – | 8.46 | – | 7.50 | – |
| Cc1ncc(C(=O)Nc2ccc(OC(F)(F)F)cc2)cc1-c1cncnc1 [Example 43, 6-Methyl-5-(pyrimidin-5-yl)-N-(4-(trifluoromethoxy)phenyl)nicotinamide] | – | 8.52 | 8.00 | 8.64 | – |
| O=C(Nc1ccc(OC(F)(F)F)cc1)c1cnc(OCCO)c(-c2cncnc2)c1 [Example 52, 6-(2-hydroxyethoxy)-5-(pyrimidin-5-yl)-N-(4-(trifluoromethoxy)phenyl)nicotinamide] | 6.30 | 7.64 | – | 7.64 | – |
| O=C(Nc1ccc(OC(F)(F)F)cc1)c1cnc(Cl)c(-c2cncnc2)c1 [Example 56, 6-Chloro-5-(pyrimidin-5-yl)-N-(4-(trifluoromethoxy)phenyl)nicotinamide] | 6.31 | 8.00 | – | 8.00 | – |
| O=C(Nc1ccc(OC(F)(F)F)cc1)c1cnc(C2CCOCC2)c(-c2cncnc2)c1 [Example 45, 5-(Pyrimidin-5-yl)-6-(tetrahydro-2h-pyran-4-yl)-N-(4-(trifluoromethoxy)phenyl)nicotinamide] | 6.34 | – | – | – | – |
| COC(=O)c1ccc(C(=O)Nc2ccc(OC(F)(F)F)cc2)cc1-c1cncnc1 [Example 68, Methyl 2-(pyrimidin-5-yl)-4-((4-(trifluoromethoxy)phenyl)carbamoyl)benzoate] | 6.75 | > 8.52 | – | 8.80 | – |
| O=C(Nc1ccc(OC(F)(F)F)cc1)c1cnc(C(F)(F)F)c(-c2cncnc2)c1 [Example 57, 5-(Pyrimidin-5-yl)-N-(4-(trifluoromethoxy)phenyl)-6-(trifluoromethyl)nicotinamide] | 6.15 | 7.66 | – | – | – |
| O=C(Nc1ccc(OC(F)(F)Cl)cc1)c1cnc(Cl)c(-c2cncc(F)c2)c1 [Example 78, 2-Chloro-N-(4-(chlorodifluoromethoxy)phenyl)-5′-fluoro-[3,3′-bipyridine]-5-carboxamide] | 6.39 | – | 8.15 | 8.41 | – |
| O=C(Nc1ccc(OC(F)(F)F)cc1)c1cncc(-c2cnn(CCO)c2)c1 [Example 64, 5-(1-(2-Hydroxyethyl)-1H-pyrazol-4-yl)-N-(4-(trifluoromethoxy)phenyl)nicotinamide] | – | 6.94 | – | 6.70 | – |
| O=C(Nc1ccc(OC(F)(F)Cl)cc1)c1cccc(-c2cncnc2)c1 [Example 10, N-(4-(Chlorodifluoromethoxy)phenyl)-3-(pyrimidin-5-yl)benzamide] | 6.40 | 8.02 | 8.68 | – | Mean brain (drug concentration in brain) [4]: 4093 pmol/g; Kp at 5 min [4]: 3.24; concentration at 5 min [4]: 1.26 µM |
| O=C(Nc1ccc(OC(F)(F)Cl)cc1)c1cnc(OC2CCOCC2)c(-c2cncnc2)c1 [Example 67, N-(4-(Chlorodifluoromethoxy)phenyl)-5-(pyrimidin-5-yl)-6-((tetrahydro-2h-pyran-4-yl)oxy)nicotinamide] | 6.34 | 8.92 | – | 8.42 | – |
| O=C(Nc1ccc(OC(F)(F)F)cc1)c1cnc(Cl)c(-c2cccnc2)c1 [Example 79, 2-Chloro-N-(4-(trifluoromethoxy)phenyl)-[3,3′-bipyridine]-5-carboxamide] | – | – | 8.22 | 8.00 | – |
| CCOc1ncc(C(=O)Nc2ccc(OC(F)(F)F)cc2)cc1-c1cncnc1 [Example 58, 6-Ethoxy-5-(pyrimidin-5-yl)-N-(4-(trifluoromethoxy)phenyl)nicotinamide] | 6.12 | 7.31 | – | 8.03 | – |
| O=C(Nc1ccc(SC(F)(F)F)cc1)c1cccc(-c2cncnc2)c1 [Example 11, 3-(Pyrimidin-5-yl)-N-(4-((trifluoromethyl)thio)phenyl)benzamide] | 6.25 | > 8.52 | 8.41 | – | Mean brain (drug concentration in brain) [4]: 7341 pmol/g; Kp at 5 min [4]: 4.99; concentration at 5 min [4]: 1.47 µM |
| O=C(Nc1ccc(OC(F)(F)Cl)cc1)c1cnc(Cl)c(-c2cncnc2)c1 [Example 76, 6-Chloro-N-(4-(chlorodifluoromethoxy)phenyl)-5-(pyrimidin-5-yl)nicotinamide] | 7.21 | – | 8.70 | 8.54 | – |
| Cc1ccc(C(=O)Nc2ccc(OC(F)(F)F)cc2)cc1-n1ccnc1 [Example 16, 3-(1H-Imidazol-1-yl)-4-methyl-N-(4-(trifluoromethoxy)phenyl)benzamide] | 6.21 | 8.40 | 8.92 | – | – |
| COc1ccc(C(=O)Nc2ccc(OC(F)(F)F)cc2)cc1-c1cncnc1 [Example 30, 4-methoxy-3-(pyrimidin-5-yl)-N-(4-(trifluoromethoxy)phenyl)benzamide] | – | – | – | – | pIC50 ([1]; 48 h): 6.07; pIC50 (Ba/F3-BCR-ABL1-WT cells; 48 h): 8.39; Mean brain (drug concentration in brain) [4]: 4471 pmol/g; concentration at 5 min [4]: 5.39 µM |
| COCCOc1ncc(C(=O)Nc2ccc(OC(F)(F)F)cc2)cc1-c1cncnc1 [Example 51, 6-(2-Methoxyethoxy)-5-(pyrimidin-5-yl)-N-(4-(trifluoromethoxy)phenyl)nicotinamide] | – | 7.20 | – | 7.29 | – |
| O=C(Nc1ccc(OC(F)(F)F)cc1)c1cccc(-c2cncnc2)n1 [Example 73, 6-(Pyrimidin-5-yl)-N-(4-(trifluoromethoxy)phenyl)picolinamide] | – | 6.16 | 5.73 | 6.27 | – |
| O=C(Nc1ccc(OC(F)(F)F)cc1)c1cnc(Cl)c(-c2cncc(F)c2)c1 [Example 77, 2-Chloro-5′-fluoro-N-(4-(trifluoromethoxy)phenyl)-[3,3′-bipyridine]-5-carboxamide] | – | – | 7.89 | 8.31 | – |
| CC(C)(O)c1ncc(C(=O)Nc2ccc(OC(F)(F)F)cc2)cc1-c1cncnc1 [Example 66, 6-(2-Hydroxypropan-2-yl)-5-(pyrimidin-5-yl)-N-(4-(trifluoromethoxy)phenyl)nicotinamide] | 6.14 | – | – | – | – |
